The record followed here is patent US20250277208A1, “Method of Peptide Library Construction and Peptides Thereof” (Alcamena Stem Cell Therapeutics, LLC, priority 2024, published 2025).

Where “and” joins values, the source holds several entries; their conditions need not be identical. Identical values can stand only once. Square brackets hold non-standard residues; d marks the D form. Ends that are not written are not given here. Phe(4-F) = N[C@@H](Cc1ccc(F)cc1)C(=O)O; Gla = N[C@@H](CC(C(=O)O)C(=O)O)C(=O)O; Cha = N[C@@H](CC1CCCCC1)C(=O)O Where only a bound is given, the exact number is not on record here.

The first experiment has as its target T1, IL-6 (Homo sapiens, UniProt P05231).
T1 construct: purchased R&D Systems BT7270B
In words: Biacore surface plasmon resonance binding of peptides to immobilised IL-6.
Settings: not given
Text: Two DNA fragments were amplified from a synthetic fragment of the IL-6R. The 5′ fragment was amplified with forward primer and a mixture of 432 reverse primers, each containing an overhang of 6 codons. The 3′ fragment was amplified with a mixture of 432 forward primers, also containing overhangs of six degenerate codons and the reverse primer. Either the first or the second nucleotide of each codon was replaced with a degenerate base. Following PCR amplification, DNA fragments were phosphorylated and ligated leading to various sequence rearrangements shown at the bottom of the FIG. 3. Four hundred thirty-two forward and reverse oligos with an overhang of 6 codons from the IL-6R binding domain were used for PCR. A degenerate nucleotide was inserted at the first or second position of each codon. When ligated, these sequences generated a library of 1×10^13 different DNA sequences. The library of DNA sequences was taken through eight rounds of mRNA Display generating a peptide library. Eighteen of the most abundant peptides in the peptide library were synthesized in a linear form and tested for binding to IL-6 using Biacore. One of the peptides (#9) (“Peptide 9”) from the peptide library, with the sequence of […] The twelve non-terminal residues represent the PepFusion library-derived DNA sequences, while N-terminal serine and C-terminal glycine come from the flanking linkers and were kept as a precaution, in case linker sequences contributed to peptide interaction with its target.
Binding reactions were performed in HBS-P/2% DMSO buffer (10 mM Hepes, pH 7.4, 150 mM NaCl, 0.05% P-20, 2% DMSO), which was filtered through […] filters and degassed before use. Biotinylated recombinant human IL-6 (IL-6-Biotin) was bound to the surface of a Biacore SA sensor chip of a Biacore T200 surface plasmon resonance unit as follows. The streptavidin surface of the chip (flow cells 1 and 2) was activated by injecting 20 μl of 1 M NaCl/50 mM NaOH at 20 μl/min, in 3 pulses. Biotinylated Recombinant Human IL6 was diluted with HBS-P buffer and an aliquot of 100 μl (2 micrograms/ml) was injected into flow cell 2 at 5 microliters/min to yield a signal of 1400 response units (RU) (10 microliters were injected). Any remaining activated residues on the streptavidin surface of flow cells 1 and 2 were blocked with 30 microliters 500 nM free Biotin.
(§1) Affinity scouting assay was performed at a flow rate of 30 microliters/min at 25° C. The analyte (60 microliter aliquots of peptides, at concentrations of 20 μM in HBS-P/2% DMSO buffer) was injected into flow cells 1 and 2 and the association reaction was recorded. The surface was then washed with HBS-P/2% DMSO for 3 min and the dissociation of the analyte from the bound IL6 was followed over time. The surfaces of the flow cells were regenerated with 30 microliters of 10 mM NaOH, followed 50 microliters of HBS-P/2% DMSO buffer.
as §1, with “Kinetics analysis of binding was performed” for “Affinity scouting assay was performed”, “concentrations of 0, 1.25 μM, 2.5 μM, 5 μM, 10 μM and 20 μM” for “concentrations of 20 μM”, “DMSO buffer. Sensorgrams were analyzed using BIAeveluation 3.2.1 software (Cytiva). Values from the reference flow cell were subtracted to obtain the values for specific binding. Data were globally fitted to the Langmuir model for a 1:1 mass transfer binding.” for “DMSO buffer.”
Take “SVKDLQHGLRHVVG [Peptide C1, control peptide homologous to peptide 9, devoid of any mutations; two unmutated fragments of IL-6R, reference compound]”: the “binding to IL-6, in words” value is reported as “no binding”.
For the substance “INTLLSEINSILLDIISLL [RA07, published control peptide described in Kobayashi et al., Mol Biotechnol 2011, reference compound]”, the “binding to IL-6, in words” value is “did not bind”.
On the same count and under the same terms, to SVRDLLRRMCHCVG [Peptide 67] belongs “no binding”.
On the same count and under the same terms, to “FD(hL)DIHLLELPTEWEKDKNEE [PN-1974(2), peptide PN-1974 with termini protected by acetylation and amidation, reference compound]” belongs “eliminated its activity”; to “FD(Cha)DIHLL(4F)LPTEWEK(Cla)KNEE (FD[Cha]DIHLL[Phe(4-F)]LPTEWEK[Gla]KNEE) [PN-2519, reference compound]”, “no activity”.

The same experiment, now with this note: KD (nM) P < 0.05, Table 1; N and C termini not protected; cells printed in μM.
“GNSRDLLRRMCHIVG [Peptide 42, GNSRDLLRRMCHIVG]” had a Kd above 10000 nM.

Staying with this experiment, now noted: Table 1; N and C termini not protected; cells printed in μM; read-out: KD (nM) P < 0.05.
As for “SNYTLLRRMCHIVG [Peptide 36, SNYTLLRRMCHIVG]”, the Kd was above 10000 nM.
On to “SVRDNFHRMCHIVG [Peptide 30, SVRDNFHRMCHIVG]”, for which the Kd was above 10000 nM.
For “SVRDLLNRICHIVG [Peptide 21, SVRDLLNRICHIVG]”, the Kd is above 10000 nM.
Consider “SVRDLLRMFCHIVG [Peptide 23, SVRDLLRMFCHIVG]”, for which the equilibrium dissociation constant (Kd) was above 10000 nM.
In the case of “SVRDLHKMMCHIVG [Peptide 25, SVRDLHKMMCHIVG]”, the Kd was above 10000 nM.
Same read-out and setting: to “SVRDLLRRMCHPRLG [Peptide 46, SVRDLLRRMCHPRLG]” belongs above 10000 nM; to “SVSIHLRRMCHIVG [Peptide 32, SVSIHLRRMCHIVG]”, above 10000 nM; to “LEIRDLLRRMCHIVG [Peptide 26, LEIRDLLRRMCHIVG]”, above 10000 nM.
For the substance “SVRIYLRRMCHIVG [Peptide 20, SVRIYLRRMCHIVG]”, the Kd is above 10000 nM.
For “SVRDPHNRMCHIVG [Peptide 22, SVRDPHNRMCHIVG]”, the Kd is above 10000 nM.
Same read-out and setting: to “SVRDLLHGRCHIVG [Peptide 40, SVRDLLHGRCHIVG]” belongs above 10000 nM; to “SVRDLPRIMCHIVG [Peptide 31, SVRDLPRIMCHIVG]”, above 10000 nM; to “SVHIHLRRMCHIVG [Peptide 34, SVHIHLRRMCHIVG]”, above 10000 nM.
The same measure, in the same setting: to “LGHRDLLRRMCHIVG [Peptide 29, LGHRDLLRRMCHIVG]” belongs above 10000 nM.

Still in this experiment, the particulars now being: Table 1; termini not protected.
Regarding “SVRDLQKOMCHIVG (SVRDLQKQMCHIVG; not fully specified) [Peptide 44]”, the “binding affinity compared with parent peptide 9, in words” value is “completely lost binding affinity”.
For CVYRDLLRRMCHIVG [Peptide 35], the “binding affinity compared with parent peptide 9, in words” value was “completely lost binding affinity”.
Still for that read-out and setting: to “H-ATIRDLLRRMCHIVG-OH [Peptide 38, ATIRDLLRRMCHIVG]” belongs “improved binding affinity”.
For the substance “NERRDLLRRMCHIVG [Peptide 41, NERRDLLRRMCHIVG]”, the “binding affinity compared with parent peptide 9, in words” value is recorded as “reduced binding affinity”.
On the same count and under the same terms, to “H-ETIRDLLRRMCHIVG-OH [Peptide 24, ETIRDLLRRMCHIVG]” belongs “improved binding affinity”; to “H-FAFRDLLRRMCHIVG-OH [Peptide 45, FAFRDLLRRMCHIVG]”, “improved binding affinity”.
Still for that read-out and setting: to “H-SVRDLLRRMKVCVG-OH [Peptide 27, SVRDLLRRMKVCVG]” belongs “improved binding affinity”; to “H-SVRDLIRMMCHIVG-OH [Peptide 33, SVRDLIRMMCHIVG]”, “improved binding affinity”.

Staying with this experiment, now noted: Table 2; N terminus acetylated, C terminus amidated; cells printed in μM; read-out: KD (nM) P < 0.05.
On to “Ac-ATIRDLLRMMKHIVG-NH2 [Peptide 95, ATIRDLLRMMKHIVG]”, for which the Kd was above 10000 nM.
Same read-out and setting: to “Ac-FSVRDLLRRMKHIVG-NH2 [Peptide 85, FSVRDLLRRMKHIVG]” belongs above 10000 nM; to “Ac-TIRDLLRMMKHIVG-NH2 [Peptide 98, TIRDLLRMMKHIVG]”, above 10000 nM.
The same measure, in the same setting: to “Ac-ATIRDLIRMMKHIVG-NH2 [Peptide 96, ATIRDLIRMMKHIVG]” belongs above 10000 nM; to “Ac-TIRDLLRRMKHIVG-NH2 [Peptide 97, TIRDLLRRMKHIVG]”, above 10000 nM.
Take “Ac-FSVRDLLRMMKHIVG-NH2 [Peptide 86, FSVRDLLRMMKHIVG]”: the Kd was above 10000 nM.
The same measure, in the same setting: to “Ac-FSFRDLLRMMKHIVG-NH2 [Peptide 92, FSFRDLLRMMKHIVG]” belongs above 10000 nM; to “Ac-TIRDLIRMMKHIVG-NH2 [Peptide 99, TIRDLIRMMKHIVG]”, above 10000 nM.
Turning to “Ac-SFRDLLRMMKHIVG-NH2 [Peptide 89, SFRDLLRMMKHIVG]”, the Kd is above 10000 nM.
On the same count and under the same terms, to “Ac-FSFRDLLRRMKHIVG-NH2 [Peptide 91, FSFRDLLRRMKHIVG]” belongs above 10000 nM.
The same measure, in the same setting: to “Ac-FSFRDLIRMMCHIVG-NH2 [Peptide 74, FSFRDLIRMMCHIVG]” belongs above 10000 nM.
Still for that read-out and setting: to “Ac-ATIRDLLRRMKHIVG-NH2 [Peptide 94, ATIRDLLRRMKHIVG]” belongs above 10000 nM; to “Ac-SFRDLLRRMKHIVG-NH2 [Peptide 88, SFRDLLRRMKHIVG]”, above 10000 nM.

Still in this experiment, the particulars now being: Table 2; termini protected.
As to “Ac-SVRDLIRRMCHIVG-NH2 [Peptide 68, SVRDLIRRMCHIVG]”, the “affinity compared with the parent sequence, in words” value is reported as “lowered affinity”.
Still for that read-out and setting: to “Ac-SVRDLLRRMKHIVG-NH2 [Peptide 65, SVRDLLRRMKHIVG]” belongs “slightly better affinity”; to “Ac-TIRDLLRRMCHIVG-NH2 [Peptide 71, TIRDLLRRMCHIVG]”, “greatly improved”; to “Ac-SVRDLLRMMCHIVG-NH2 [Peptide 69, SVRDLLRMMCHIVG]”, “no significant effect”.
Regarding “Ac-FSFRDLLRMMCHIVG-NH2 [Peptide 80, FSFRDLLRMMCHIVG]”, the “affinity compared with the parent sequence, in words” value is recorded as “not improved”.
The same measure, in the same setting: to “Ac-SVRDLLRRMCVIVG-NH2 [Peptide 66, SVRDLLRRMCVIVG]” belongs “slightly better affinity”; to “Ac-FAFRDLLRMMCHIVG-NH2 [Peptide 75, FAFRDLLRMMCHIVG]”, “not improved”.

The same experiment, now with this note: termini not protected; read-out: KD.
As to “H-SVRDLLRRMCHIVG-OH [Peptide 9, SVRDLLRRMCHIVG]”, the dissociation constant Kd came out at 2500 nM.

Still in this experiment, the particulars now being: termini protected (acetylated, amidated); read-out: KD.
In the case of “Ac-FAFRDLIRMMKVCVG-NH2 [Peptide 79, FAFRDLIRMMKVCVG]”, the Kd turned out to be 247 nM.
On to “Ac-FAFRDLIRMMKHIVG-NH2 [Peptide 77, FAFRDLIRMMKHIVG]”, for which the dissociation constant Kd is ≤ 1500 nM and 405 nM.
Same read-out and setting: to “Ac-FAFRDLIRMMCVIVG-NH2 [Peptide 78, FAFRDLIRMMCVIVG]” belongs at most 1500 nM; to “Ac-ATIRDLIRMMKVIVG-NH2 [Peptide 83, ATIRDLIRMMKVIVG]”, 563 nM; to “Ac-ATIRDLIRMMKVCVG-NH2 [Peptide 82, ATIRDLIRMMKVCVG]”, 108 nM.
Same read-out and setting: to “Ac-FAFRDLIRMMKVIVG-NH2 [Peptide 76, FAFRDLIRMMKVIVG]” belongs at most 1500 nM; to “Ac-FAFRDLIRMMCHIVG-NH2 [Peptide 58, FAFRDLIRMMCHIVG]”, ~100 nM and 71 nM; to “Ac-ATIRDLIRMMCHIVG-NH2 [Peptide 51, ATIRDLIRMMCHIVG]”, ~100 nM and 128 nM.
For “Ac-FSFRDLLRRMCHIVG-NH2 [Peptide 72, FSFRDLLRRMCHIVG]”, the dissociation constant Kd stood at 27 nM.
